Molecular target: T1, EGFR (Homo sapiens, UniProt P00533)
Experiment: EGFR autophosphorylation (tyrosine 1173) inhibition assay in lung cancer cell line A459
Type: cell-based
Set-up: 3.6×10^5 A549 cells/well in a 24-well culture plate; endogenous in cells
Settings: EGF-induced phosphorylation of tyrosine 1173
Protocol: (§1) Cells were stimulated by the addition of 5 ng/ml of EGF for five minutes. Cells were then washed with cold phosphate buffered saline (PBS), and incubated for 30 minutes at 4° C. in lysis buffer. […] Total EGFR levels were also measured in the same manner to control for protein level differences.

T1 sequence (P00533 25-1210): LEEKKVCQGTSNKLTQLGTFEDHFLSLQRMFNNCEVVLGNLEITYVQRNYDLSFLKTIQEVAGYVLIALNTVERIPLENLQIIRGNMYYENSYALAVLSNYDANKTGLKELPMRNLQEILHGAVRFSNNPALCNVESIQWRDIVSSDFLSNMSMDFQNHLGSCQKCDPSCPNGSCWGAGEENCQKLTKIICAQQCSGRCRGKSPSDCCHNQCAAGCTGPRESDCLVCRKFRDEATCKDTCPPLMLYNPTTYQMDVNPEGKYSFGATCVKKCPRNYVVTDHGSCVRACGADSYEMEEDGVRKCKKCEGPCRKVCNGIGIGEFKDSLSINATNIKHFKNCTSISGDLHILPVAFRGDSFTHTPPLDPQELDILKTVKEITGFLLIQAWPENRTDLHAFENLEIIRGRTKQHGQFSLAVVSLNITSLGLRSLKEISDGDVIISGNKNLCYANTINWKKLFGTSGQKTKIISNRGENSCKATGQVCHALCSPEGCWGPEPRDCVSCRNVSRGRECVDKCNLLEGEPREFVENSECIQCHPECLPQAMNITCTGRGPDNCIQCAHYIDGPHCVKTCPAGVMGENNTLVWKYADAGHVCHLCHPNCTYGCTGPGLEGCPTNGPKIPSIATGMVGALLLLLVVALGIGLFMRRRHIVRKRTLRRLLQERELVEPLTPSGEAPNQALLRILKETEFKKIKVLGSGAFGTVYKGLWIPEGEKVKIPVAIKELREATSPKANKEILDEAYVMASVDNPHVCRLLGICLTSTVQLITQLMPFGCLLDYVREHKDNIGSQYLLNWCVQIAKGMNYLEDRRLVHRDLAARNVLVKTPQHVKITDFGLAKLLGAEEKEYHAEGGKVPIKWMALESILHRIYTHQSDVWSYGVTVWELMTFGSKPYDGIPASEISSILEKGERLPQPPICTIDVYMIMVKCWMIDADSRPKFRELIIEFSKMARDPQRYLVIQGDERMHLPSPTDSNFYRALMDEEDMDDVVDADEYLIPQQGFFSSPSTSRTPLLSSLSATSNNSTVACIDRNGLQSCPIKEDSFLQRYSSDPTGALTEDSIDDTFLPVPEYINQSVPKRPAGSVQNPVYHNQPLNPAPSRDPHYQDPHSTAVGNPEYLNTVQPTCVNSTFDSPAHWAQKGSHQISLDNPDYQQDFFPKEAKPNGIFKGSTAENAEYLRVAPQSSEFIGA

| Structure (SMILES) | IC50 [nM] |
| --- | --- |
| COc1ccc(-c2cc3c(N[C@@H](C)c4ccccc4)ncnc3n2C(C)C)cc1 [Compound D10] | < 100 |
| C[C@H](Nc1ncnc2c1[nH]c1ccccc12)c1ccccc1 [Compound C2] | 1000 to 10000 |

Molecular target: T1, EGFR
Experiment: Binding constant (Kd) measurement, T7 phage-displayed kinase competition binding, wildtype EGFR
Set-up: made in house
Settings: read-out: Kd for EGFR (DKIN) Binding
Description: Methods for measuring binding affinities for interactions between small molecules and kinases including FLT3, c-KIT, ABL(T334I) [a.k.a. […] The components of the assays include human kinases expressed as fusions to T7 bacteriophage particles and immobilized ligands that bind to the ATP site of the kinases. […] If the test compound binds the kinase it competes with the immobilized ligand and prevents binding to the solid support. […] The results are read out by quantitating the amount of fusion protein bound to the solid support, which is accomplished by either traditional phage plaque assays or by quantitative PCR (qPCR) using the phage genome as a template.
The term “ND” represents non-determined values.
To measure the Kd values, the T7 phage displaying human EGFR were incubated with an […] affinity matrix in the presence of various concentrations of a soluble (non-immobilized) compounds provided herein, as described in detail herein.

| Structure (SMILES) | Kd [nM] |
| --- | --- |
| COc1cccc(Nc2ncnc3[nH]c(-c4cccc(OC)c4)cc23)c1 [Compound S21] | < 100 |
| Fc1ccc(Nc2ncnc3c2[nH]c2ccccc23)cc1Cl [Compound C14] | 100 to 1000 |
| COc1ccc(C(C)Nc2ncnc3[nH]c(-c4ccc(O)cc4)cc23)cc1 (centres unmarked) [Compound I23] | 1000 to 10000 |
| C[C@H](Nc1ncnc2[nH]c(-c3ccc(O)cc3)cc12)c1ccccc1 [Compound I9] | 1000 to 10000 |
| Cc1cc(C)cc(Nc2ncnc3[nH]c(-c4ccc(Br)cc4)cc23)c1 [Compound S39] | 100 to 1000 |
| Clc1cccc(Nc2ncnc3[nH]cnc23)c1 [Compound G12] | > 10000 |
| COc1ccc(-c2cc3c(N[C@@H](C)c4ccccc4)ncnc3n2C(C)C)cc1 [Compound D10] | < 100 |
| COc1ccc(-c2nc3c(NCc4cccc(C)c4)ncnc3[nH]2)cc1 [Compound I4] | 100 to 1000 |
| Oc1ccc(-c2cc3c(Nc4cccc(O)c4)ncnc3[nH]2)cc1 [Compound S33] | < 100 |
| COc1ccc(Cn2c(-c3ccc(OC)cc3)cc3c(Nc4cccc(O)c4)ncnc32)cc1 [Compound K7] | 1000 to 10000 |
| COc1cccc(-c2cc3c(NCc4cccc(Cl)c4)ncnc3[nH]2)c1 [Compound I11] | < 100 |
| COc1ccc(-c2cc3c(Nc4cccc(C(F)(F)F)c4)ncnc3[nH]2)cc1 [Compound I5] | < 100 |
| Oc1ccc(-c2cc3c(Nc4cccc(F)c4)ncnc3[nH]2)cc1 [Compound S35] | < 100 |
| O=C(O)c1cccc(Nc2ncnc3[nH]cnc23)c1 [Compound G6] | > 10000 |
| Cc1cccc(CNc2ncnc3[nH]c(-c4ccc(O)cc4)cc23)c1 [Compound I20] | < 100 |
| COc1ccc(-c2cc3c(NCCc4ccccc4)ncnc3[nH]2)cc1 [Compound I8] | 100 to 1000 |
| COc1cccc(CNc2ncnc3[nH]c(-c4ccc(O)cc4)cc23)c1 [Compound I19] | 100 to 1000 |
| COc1cccc(-c2cc3c(Nc4cccc(F)c4)ncnc3[nH]2)c1 [Compound S22] | < 100 |
| COc1ccc(-c2cc3c(Nc4cc(Cl)cc(Cl)c4)ncnc3[nH]2)cc1 [Compound S2] | 100 to 1000 |
| Oc1ccc(-c2cc3c(NCc4ccccc4)ncnc3[nH]2)cc1 [Compound I21] | < 100 |

| Structure (SMILES) | Kd [nM] |
| --- | --- |
| C[C@H](Nc1ncnc2[nH]c(-c3ccc(Br)cc3)cc12)c1ccccc1 [Compound I24] | < 100 |
| COc1cccc(-c2cc3c(Nc4cc(C)cc(C)c4)ncnc3[nH]2)c1 [Compound S13] | < 100 |
| Oc1ccc(-c2cc3c(Nc4ccc(F)cc4)ncnc3[nH]2)cc1 [Compound S37] | < 100 |
| COc1ccc(Cn2c(-c3ccc(OC)cc3)cc3c(Nc4cccc(F)c4)ncnc32)cc1 [Compound K8] | 1000 to 10000 |
| C[C@H](Nc1ncnc2c1[nH]c1ccccc12)c1ccccc1 [Compound C2] | < 100 |
| COc1cccc(CNc2ncnc3nc[nH]c23)c1 [Compound G15] | > 10000 |
| COC(=O)c1cccc(Nc2ncnc3[nH]c(-c4ccc(OC)cc4)cc23)c1 [Compound S4] | < 100 |
| COc1ccc(C(C)Nc2ncnc3[nH]c(-c4cccc(OC)c4)cc23)cc1 (centres unmarked) [Compound I17] | 1000 to 10000 |
| COc1cccc(-c2cc3c(Nc4ccc(Cl)c(Cl)c4)ncnc3[nH]2)c1 [Compound S19] | < 100 |
| C[C@@H](Nc1ncnc2oc(-c3ccccc3)c(-c3ccccc3)c12)c1ccccc1 [Compound H1, (5,6-Diphenyl-furo[2,3-d]pyrimidin-4-yl)-(1-phenyl-ethyl)-amine] | < 100 |
| COc1ccc(Cn2c(-c3ccc(OC)cc3)cc3c(Nc4cc(C)cc(C)c4)ncnc32)cc1 [Compound K6] | 1000 to 10000 |
| Clc1cc(Cl)cc(Nc2ncnc3[nH]c(-c4ccc(Br)cc4)cc23)c1 [Compound S38] | 1000 to 10000 |
| COc1ccc(-c2cc3c(Nc4ccc(Cl)c(C(F)(F)F)c4)ncnc3[nH]2)cc1 [Compound S8] | < 100 |
| COc1cccc(-c2cc3c(Nc4ccc(C)cc4)ncnc3[nH]2)c1 [Compound S28] | < 100 |
| COc1cccc(-c2cc3c(NCc4cccc(C)c4)ncnc3[nH]2)c1 [Compound I12] | 100 to 1000 |
| COc1ccc(-c2cc3c(Nc4cccc(C(=O)O)c4)ncnc3[nH]2)cc1 [Compound S3] | < 100 |
| CC(Nc1ncnc2[nH]c(-c3ccc(O)cc3)cc12)c1ccccc1 (centres unmarked) [Compound I18] | < 100 |
| Clc1ccc(Nc2ncnc3[nH]cnc23)cc1Cl [Compound G3] | 1000 to 10000 |
| Cc1cc(C)cc(Nc2ncnc3[nH]c(-c4ccc(O)cc4)cc23)c1 [Compound S30] | < 100 |
| CC(Nc1ncnc2oc(-c3ccccc3)c(-c3ccccc3)c12)c1ccccc1 (centres unmarked) [Compound H3] | < 100 |

| Structure (SMILES) | Kd [nM] |
| --- | --- |
| COc1cccc(Nc2ncnc3[nH]c(-c4ccc(O)cc4)cc23)c1 [Compound S36] | < 100 |
| COc1ccc(-c2cc3c(NC(C)c4ccccc4)ncnc3[nH]2)cc1 (centres unmarked) [Compound M24] | 100 to 1000 |
| COc1ccc(-c2cc3c(Nc4cccc(C)c4)ncnc3[nH]2)cc1 [Compound S10] | < 100 |
| COc1cccc(-c2cc3c(Nc4ccc(F)cc4)ncnc3[nH]2)c1 [Compound S24] | < 100 |
| COc1cccc(-c2cc3c(NCc4ccccc4)ncnc3[nH]2)c1 [Compound I14] | < 100 |
| COc1cccc(-c2cc3c(Nc4ccccc4)ncnc3[nH]2)c1 [Compound S27] | < 100 |
| O=C(O)c1cccc(Nc2ncnc3[nH]c(-c4ccc(O)cc4)cc23)c1 [Compound S31] | 1000 to 10000 |
| COc1cccc(-c2cc3c(Nc4cccc(O)c4)ncnc3[nH]2)c1 [Compound S16] | < 100 |
| COc1cccc(Nc2ncnc3[nH]c(-c4ccc(Br)cc4)cc23)c1 [Compound S42] | 100 to 1000 |
| COC(=O)C(Nc1ncnc2[nH]c(-c3ccc(OC)cc3)cc12)c1ccccc1 (centres unmarked) [Compound I7] | 100 to 1000 |
| COc1ccc(-c2cc3c(N[C@H](C)c4ccccc4)nc(N[C@@H](C)c4ccccc4)nc3[nH]2)cc1 [Compound M22] | < 100 |
| COc1ccc(-c2cc3c(N[C@@H](C)c4ccccc4)ncnc3n2C)cc1 [Compound D9] | > 10000 |
| Cn1c(-c2ccc(O)cc2)cc2c(Nc3cccc(Br)c3)ncnc21 [Compound Q7] | 1000 to 10000 |
| COC(=O)c1cccc(Nc2ncnc3[nH]c(-c4cccc(OC)c4)cc23)c1 [Compound S15] | > 10000 |
| COc1ccc(Cn2c(-c3ccc(OC)cc3)cc3c(NCc4cccc(Cl)c4)ncnc32)cc1 [Compound M20] | 1000 to 10000 |
| COc1cccc(-c2cc3c(Nc4ccc(Cl)cc4)ncnc3[nH]2)c1 [Compound S23] | < 100 |
| Oc1ccc(-c2cc3c(NCCc4ccccc4)ncnc3[nH]2)cc1 [Compound I22] | < 100 |
| COc1ccc(-c2cc3c(N[C@H](C)c4ccccc4)ncnc3[nH]2)cc1 [Compound M21] | < 100 |
| COc1cccc(-c2cc3c(NCc4ccc(Cl)cc4)ncnc3[nH]2)c1 [Compound I16] | < 100 |
| COC(=O)c1cccc(Nc2ncnc3[nH]c(-c4ccc(O)cc4)cc23)c1 [Compound S32] | 100 to 1000 |

Molecular target: T1, EGFR
Experiment: EGFR autophosphorylation (tyrosine 1173) inhibition assay in A431 cells
Type: cell-based
Set-up: 4×10^4 A431 cells/well in a 96-well culture plate; endogenous in cells; host or cells: A431
Settings: Epidermoid Carcinoma Cell Line A431; EGF-induced phosphorylation of tyrosine 1173
Protocol: as §1

| Structure (SMILES) | IC50 [nM] |
| --- | --- |
| Cc1cc(C)cc(Nc2ncnc3[nH]c(-c4ccc(Br)cc4)cc23)c1 [Compound S39] | 100 to 1000 |
| COc1ccc(-c2cc3c(N[C@@H](C)c4ccccc4)ncnc3n2C(C)C)cc1 [Compound D10] | 100 to 1000 |
| C[C@H](Nc1ncnc2c1[nH]c1ccccc12)c1ccccc1 [Compound C2] | 100 to 1000 |
| C[C@@H](Nc1ncnc2oc(-c3ccccc3)c(-c3ccccc3)c12)c1ccccc1 [Compound H1, (5,6-Diphenyl-furo[2,3-d]pyrimidin-4-yl)-(1-phenyl-ethyl)-amine] | 100 to 1000 |
| CC(Nc1ncnc2oc(-c3ccccc3)c(-c3ccccc3)c12)c1ccccc1 (centres unmarked) [Compound H3] | 100 to 1000 |
| COc1ccc(-c2cc3c(Nc4cccc(C)c4)ncnc3[nH]2)cc1 [Compound S10] | < 100 |

From patent US20050153989A1, “Pyrrolopyrimidine derivatives and analogs and their use in the treatment and prevention of diseases” (Ambit Biosciences Corporation, priority 2004, published 2005)
